The text below walks through data of patent US12428405B2, “Chalcone-based chemotherapeutic compound for triple negative breast cancer” (QATAR UNIVERSITY, priority 2019, dated 2025).

Entries after “also recorded” stand apart in the source; their conditions may differ. Where two headings read alike, the source gives them in different places.

Data set [1] concerns MDA-MB-231. Description: Migration (wound healing) assay. The data set is classed as cell-based. To be noted: for IC50: 24 hours of treatment, 5 concentrations, two independent experiments, read-out: Migratory IC50 MDA-MB-231; for activity at 5 µM: 24 hours post treatment, control = 100, Mean ± SEM (N = 2 × 2), read-out: % migration. On the procedure: MDA-MB-231 cells were seeded in 12-wells plates at a concentration of 500,000 cells/well and were incubated in complete RPMI culture medium until covering the well and reaching around 90-100% confluency. Following, cells were serum starved for 4 hours and a 200 μl pipette tip was used to create the scratch followed by cell washing with PBS twice. […] Microscopic pictures were then taken, and cell migration was quantified based on the wound diameter at 24 hours minus the initial diameter at time zero, as represented by the following equation: % Migration=[…]

The subject of data set [2] is HNME-E6/E7. Description: MTT cell viability on immortalized normal mammary epithelial cells. It is filed as cell-based, human. To be noted: normal cell line; 48 hours of treatment; Mean ± SEM (n = 3 × 3). From the text: (§1) Breast cancer cell lines including MDA-MB-231, MDA-MB-468, MCF-7, BT-474 and SK-BR-3 were obtained from the American Type Tissue Culture (ATCC) and maintained in complete cell culture media Gibco® RPMI 1640 (Thermo Fisher Scientific, USA) supplemented with 10% fetal bovine serum (PAN-Biotech, Aidenbach, Bavaria, Germany) and 1% penicillin/streptomycin (1×) antibiotics (Thermo Fisher Scientific, USA). Human normal mammary epithelial cells immortalized by E6/E7 of HPV type 16 (HNME-E6/E7) were used to predict potential safety of the compounds (125, 126). They were maintained in Gibco® Keratinocyte-SFM (1×) media. All cells were incubated in 5% CO2 at 37° C. incubator. Cells were maintained by routine sub-culturing in T-75 and T25 filtered tissue culture flasks.
MDA-MB-231, MDA-MB-468, MCF-7, BT-474 and HNME-E6/E7 cells were seeded overnight in 96-well plates at a concentration of 8000-10,000/well depending on their pre-calculated cell density and were incubated overnight. At 24 hours, media was replaced with fresh one. The treatment wells included 6-8 different concentrations of the compounds ranging between 0.25 μM-160 μM. […] Absorbance was recorded at a wavelength of 562 nm after 3 minutes of shaking using Infinite 200 PRO Microplate Reader (Tecan, Switzerland). Percentage of viable cells was calculated using the following formula: […]

For data set [3], the system named is Chorioallantoic membrane (CAM) of the chicken embryos. Description: Chorioallantoic membrane (CAM) angiogenesis assay. It is filed as in vivo. To be noted: treated at embryonic day 4, read at day 8; 2 μl of 5 mM stock under coverslip. The method, then: Fertilized white Leghorn chicken embryos (Arab Qatari for Poultry Production, Qatar) were purchased and incubated at 60% humidity at 37° C. in MultiQuip incubator. Ethics approval was obtained from Qatar University-Institutional Bio-safety committee. The embryos were treated in ovo at embryonic day 4 with three of the synthesized chalcones (5, 13 and 14) compared to DMSO treated controls. Briefly, a small cut was made at the top of the shells of the eggs and each treatment was added under a round coverslip at 2 μl of 5 mM stock solutions. Microscopic pictures were taken at embryonic day 8. Embryos treated with compounds 13 and 14 were sacrificed at embryonic day 9 for clinical observations. Quantification of blood vessels was performed manually and the different treatment groups were compared.

In data set [4] the test system is BT-474. Description: MTT cell viability. The data set is classed as cell-based.
Text: as §1
MDA-MB-231, MDA-MB-468, MCF-7, BT-474 and HNME-E6/E7 cells were seeded overnight in 96-well plates at a concentration of 8000-10,000/well depending on their pre-calculated cell density and were incubated overnight. At 24 hours, media was replaced with fresh one. The treatment wells included 6-8 different concentrations of the compounds ranging between 0.25 μM-160 μM. At 48 hours post treatment, 10 μL MTT solution was added to each well followed by 4 hours of incubation. Afterwards, media with MTT was removed from all wells and 50 μl DMSO was added to each well to dissolve the crystals. This was followed by 5 minutes incubation. Absorbance was recorded at a wavelength of 562 nm after 3 minutes of shaking using Infinite 200 PRO Microplate Reader (Tecan, Switzerland). Percentage of viable cells was calculated using the following formula: […]

Data set [5] has as its system Epithelial Mesenchymal Transition (EMT) markers in MDA-MB-231 cells. Description: Western blot of EMT markers. It is filed as cell-based. The method, then: (§2) Proteins were quantified with the Pierce BCA Protein Assay Kit (Thermo Scientific, USA) following cell lysis. SDS-PAGE was prepared at a concentration of 10% for all studied proteins. All samples were loaded at 40 μg per 1.5 mm 15 wells comb. Running of stained samples was performed using two steps gel electrophoresis (60 Volts for 20 minutes followed by 120 Volts for 1 hour). Afterwards, gels were transferred into PVDF membrane at 100 Voltage for 1.5-2.0 hours using wet transfer. Following transfer, PVDF membranes were blocked with 5% skimmed milk and washed three times. Primary antibodies (Table 2.2) were prepared, then PVDF membrane were incubated with them overnight with gentle shaking at 4° C. Afterwards, membranes were washed three times and incubated with their respective secondary antibodies for 1-2 hours with gentle shaking at room temperature. Pierce™ ECL Western Blotting Substrate was used to detect proteins by chemiluminescence. Blots were imaged using the ibrightCL1000 imaging system.
For orientation: A western blot detects proteins with antibodies after separation by electrophoresis.

Data set [6] relates to EMT markers on MCF-7. Description: Western blot of EMT markers. To be noted: 5 and 10 μM. The data set is classed as cell-based. On the procedure:
as §2

Data set [7] deals with BAX/bcl2 expression in MCF-7 cell line. Description: Western blot of BAX/bcl-2 expression. To be noted: 48 h, 5 and 10 μM; vs DMSO and colchicine. The data set is classed as cell-based. On the procedure:
as §2

Data set [8] has as its system BAX/bcl2 expression in MDA-MB-231 cell line. Description: Western blot of BAX/bcl-2 expression. It is filed as cell-based. To be noted: 48 h, 5 and 10 μM; vs DMSO and colchicine. The method, then: as §2
For data set [9], the system named is MDA-MB-468. Description: PE Annexin V apoptosis assay (flow cytometry). It is filed as cell-based. The method, then:
PE Annexin V apoptosis Detection Kit (BD Pharmingen, USA) was used to quantify cell apoptosis in treated versus untreated MDA-MB-468 cells at 24 and 48 hours post treatment. Briefly, cells were seeded at a density of 300,000 cells/well in 6-well plates. Second day, media was replaced with fresh media and treatment was added. Cells were harvested following treatment and each group of cells was stained with PE Annexin V and 7-AAD Annexin V as per the protocol specified on the kit. Samples were then analyzed by Accuri C6 flow cytometer (BD Biosciences, USA). The percentages of cells (viable cells, apoptotic cells, necrotic cells and dead cells) were quantified in each of the four quadrants. Data and figures were processed using the FlowJo V10 software.
(A flow cytometer gives signals particle by particle.)

What is called IC50 is the concentration that inhibits the measured activity by half. On to `CS(=O)(=O)c1ccc(C(=O)/C=C/c2ccc(N(CCCl)CCCl)cc2)cc1` [Compound 13, (E)-3-(4-(Bis(2-chloroethyl)amino)phenyl)-1-(4-(methylsulfonyl)phenyl) prop-2-en-1-one], for which the half-maximal inhibitory concentration (IC50) in data set [1] (Homo sapiens, MDA-MB-231, 24 h) worked out at 5.71 ± 0.57 µM. The activity at 5 µM in data set [1] (Homo sapiens, MDA-MB-231, 5 μM) is 59.5 ± 2.75%. Also, the “LD50 HNME-E6/E7” value in data set [2] is 32.32 ± 3.93 µM. Also, the “inhibition of blood vessels development vs control” value in data set [3] amounted to 55.6±6.04%.

Regarding `COc1cccc(C(=O)/C=C/c2ccc(N(CCCl)CCCl)cc2)c1` [Compound 14, (E)-3-(4-(Bis(2-chloroethyl)amino)phenyl)-1-(3-methoxyphenyl) prop-2-en-1-one], the IC50 in data set [4] (Homo sapiens, BT-474, 48 hours of treatment, Mean ± SEM (n = 3 × 3)) came out at 9.22 ± 0.78 µM; in data set [1] it was 2.86 ± 0.197 µM; in data set [1] (Homo sapiens, MDA-MB-231, 24 h), 2.86 ± 0.2 µM. The “SI of HNME/BT-474 (selective index)” value in [4] (ratio of LD50 on HNME-E6/E7 to IC50 on BT-474) came out at 2.24. The E-cadherin expression entry is “concentration dependent upregulation” in data set [5] (5 and 10 μM); “concentration dependent upregulation” in data set [6]. Also, the pan-cadherin expression entry in [5] (5 and 10 μM) is on record as “upregulated by compound 14 in a concentration dependent manner”; in [6], “upregulated by compound 14 in a concentration dependent manner”. In addition, in data set [5] (MDA-MB-231), the “Focal adhesion kinase (FAK) expression” value is listed as “downregulated”. For the same compound, the “expression of β-catenin and its phosphorylated form” value in data set [5] (cell line not named in the sentence (FIG. 3.24, FIG. 3.25)) is recorded as “No significant changes”. Further, the “EMT (in words)” value in data set [5] (summary statement) was “reversal of EMT”. Besides, the activity at 5 µM in data set [1] (Homo sapiens, MDA-MB-231, 5 μM) stood at 32.11 ± 0.17%. Also, the inhibition at 5 µM in data set [1] (Homo sapiens, MDA-MB-231, 5 μM, 24 hours, read-out: inhibition of cell migration) stood at 67.89 ± 0.17%. Further, the “LD50 HNME-E6/E7” value in data set [2] is 20.67 ± 1.50 µM. For the same compound, the “BAX / bcl-2 protein expression, BAX/bcl-2 ratio” value in data set [7] is “upregulation of BAX and downregulation of bcl-2; also recorded: positive increase in BAX/bcl-2 ratio”; in data set [8], “upregulation of BAX and downregulation of bcl-2; also recorded: positive increase in BAX/bcl-2 ratio”. In data set [9] (24 and 48 hours), the “early and late apoptosis (in words)” value was “time dependent”. Also, the rate of apoptosis in data set [9] (48 hours, N=1) amounted to 28.00%. In addition, in data set [3], the “inhibition of blood vessels development vs control” value was 60.20±8.47%.
